Laboratory results published in patent US11207286B2, “Self-emulsifying composition of w3 fatty acid” (MOCHIDA PHARMACEUTICAL CO., LTD., priority 2009, dated 2021).

Experiments:
[1] = Pharmacokinetics in cynomolgus monkey; assay type: in vivo; details: cynomolgus monkeys fasted at least 12 hours, oral, 4.5 mg/kg in terms of EPA-E, plasma EPA
Protocol: The compositions of the Example 6 was orally administered to 6 cynomolgus monkies (2 to 5 years having a body weight of 2.70 to 4.65 kg, Hamri Co., Ltd.) under fasting, and time course blood EPA concentration was evaluated. The test animals were fasted at least for 12 hours before the test, and each animal was administered with the self-emulsifying composition at an amount of 4.5 mg/kg in terms of the EPA-E. The EPA-E stock solution filled in a capsule was also administered to the control group animals. The blood was collected before the administration and at 1, 2, 4, 6, 8, 10, 12, 24, 48, and 72 hours after the administration, and after separating and treating the plasma, plasma EPA was measured by LC/MS/MS. […] In calculating each parameter, the value was corrected by subtracting the blood EPA concentration before the administration from the blood concentration after the administration.

[2] = on rare occasion; cited from earlier work
[3] = Pharmacokinetics in beagle; assay type: in vivo; details: male beagles fasted at least 18 hours, oral, 600 mg in terms of EPA-E, plasma EPA, corrected for pre-administration concentration
Protocol: The compositions of the Examples 6, 7, 9, 10, 13, and Comparative Example 2 were orally administered to 3 to 8 male beagles (34 to 45 months old having a body weight of 11 to 17 kg, Kitayama Labes Co., Ltd.) under fasting, and time course blood EPA concentration was evaluated. The test animals were fasted at least for 18 hours before the test, and each animal was administered with the composition at an amount of 600 mg in terms of the EPA-E. The blood was collected before the administration and at 1, 1.5, 2, 2.5, 3, 4, 6, 8, and 24 hours after the administration, and after separating and treating the plasma, plasma EPA concentration was measured by LC/MS/MS. The EPA-E stock solution filled in a capsule was also administered to the control group animals. […] In calculating each parameter, the value was corrected by subtracting the blood EPA concentration before the administration from the blood concentration after the administration.

[4] = tested on: Fasted Glucose Tolerance Model Rat; experiment: Effectiveness in fasted glucose tolerance model rat; assay type: in vivo, Sprague Dawley rats; details: rats fasted at least 24 hours, oral capsule 100 mg/kg in terms of EPA-E, glucose 2 g/kg 30 minutes later
Protocol: Male Sprague Dawley rats (10 week old, Charles River Laboratories Japan, Inc.) are divided into 4 groups each comprising 10 animals with even body weight and serum TG value. Control group is administered with olive oil, EPA-E group is administered with EPA-E stock solution, Example group is administered with the self-emulsifying composition of Example 6, and comparative group is administered with the composition of Comparative Example 2 by filling in the gelatin capsule and perorally administering the capsule to the animals, respectively. The test animals are fasted at least 24 hours before the administration, and each animal is administered with the composition at an amount of 100 mg/kg in terms of the olive oil or the EPA-E. 30 minutes after the administration, glucose solution in physiological saline is orally administered at 2 g/kg. Blood is periodically collected from tail vein, and plasma TG concentration and free fatty acid concentration are measured by using a commercially available assay kit. Change from the value before the glucose loading is calculated for each parameter.

- AUC0-12 ([1]; 0 to 12 hours, corrected): 46.5 µg·h/mL
- AUC0-72 ([1]; 0 to 72 hours, corrected): 284.5 µg·h/mL
- Cmax ([1]; corrected for pre-administration concentration): 7400 ng/mL
- AUC0-2 ([3]; 0 to 2 hours): 14.4 µg·h/mL
- AUC0-24 ([3]; 0 to 24 hours): 188.0 µg·h/mL
- Cmax [3]: 16600 ng/mL
SMILES: CC/C=C\C/C=C\C/C=C\C/C=C\C/C=C\CCCC(=O)OCC [EPA-E stock solution, Ethyl eicosapentaenoate ester]
- side effect: nausea [2]: 0.23%
- side effect: stomach discomfort [2]: 0.23%
- side effect: vomiturition [2]: 0.21%
- increase in plasma TG concentration after the glucose loading [4]: not observed
